Source: US9241976B2, “Use of HDL-related molecules to treat and prevent proinflammatory conditions” (THE REGENTS OF THE UNIVERSITY OF CALIFORNIA, priority 2011, dated 2016)

What was measured:
NIH3T3 cells = test: NIH3T3 cell viability, MTS assay; type: cell-based; conditions: 10 μg/mL, 48 hours
Experimental: CT26 and NIH3T3 cells (2,000 cells per well) were first cultured in complete medium in 96-well culture plates, and 24 hours later the medium was replaced with serum-free medium. […] Cells were incubated for an additional 48 hours and assayed for viability using MTS assays kit (Promega) according to the manufacturer's protocol.

[1] = system: HDL anti-inflammatory properties; conditions: 0.43 mg/kg daily, intravenous infusion 7 days or subcutaneously 28 days, patients with coronary heart disease (Watson and colleagues); cited from earlier work
CD31 = test: ID8 flank tumor model, CD31 staining of vessels; type: in vivo, mouse; conditions: C57BL/6J mice, 10 mg/kg s.c. daily for 3 weeks, vs control group
Experimental: Nine-week-old C57BL/6J female mice were given a 0.5-ml subcutaneous injection of 5×10^6 ID8 cells prepared as a single cell suspension in PBS mixed with an equal volume of cold Matrigel (BD Biosciences, San Jose, Calif.). After 2 weeks, mice started to receive scrambled 4F peptide (sc-4F) or L-4F (10 mg/kg) by subcutaneous injection at a site distant from the site where the ID8 cells were injected daily for 3 weeks. After 3 weeks, the mice were sacrificed for tumor collection and further analyses.
Frozen tumor tissues were sectioned at a thickness of 5 μm and fixed with cold acetone for 10 min at −20° C. The sections were blocked with 10% normal goat serum and 4% bovine serum albumin prepared in PBS for 3 h and immediately incubated with rabbit anti-mouse polyclonal HIF-1α antibody (1:200) (Abcam Inc.) or rat anti-mouse monoclonal CD31 antibody (1:25) (Abcam Inc.) overnight at 4° C. The sections were then incubated with corresponding biotinylated secondary antibodies (Vector Laboratories) for 30 min at room temperature followed by incubation with Vectastain ABC Elite reagents (Vector Laboratories) to visualize the staining. Finally, sections were lightly counterstained with hematoxylin, dehydrated, and coverslipped with Vecta-Mount solution (Vector Laboratories).

APC^min/+ mice = APC^min/+ mice study, intestinal tumors; type: in vivo; conditions: C57BL/6J-APC^min/+ mice; 100 mg/kg/d in mouse chow for 8 weeks
Experimental: (§1) 6-week-old APC^Min/+ male mice on a C57BL/6J background were treated with bHDL 100 mg/kg/day administered in a chow diet. After 8 weeks treatment, mice were sacrificed. The entire intestine was immediately removed, fixed in formalin and 70% ethanol. The intestine was opened and examined under a dissecting microscope to count and measure the tumors.
as §1, with “Six-week-oldAPC^min/+” for “6-week-old APC^Min/+”, “L-4F or sc-4F at” for “bHDL”, “mg/kg/d” for “mg/kg/day”

ID8 cells = conditions: cited from earlier work
cyclin D1 and cyclin A = test: Western blot of cyclin D1 and cyclin A in CT26 cells; type: cell-based, mouse
Experimental: Total cell proteins were collected after treatment in cell lysis buffer containing 0.1 mol/L NaCl, 5 mmol/L EDTA, 50 mmol/L sodium orthovanadate, 1% Triton X-100, and protease inhibitor tablet in 50 mmol/L Tris buffer (pH 7.5). Twenty micrograms of total proteins were separated by SDS-PAGE and transferred onto nitrocellulose membrane and followed by incubation with primary antibody at 4° C. in 5% skim milk and 0.1% Tween-20. Anti-cyclin D1 and anti-cyclin A rabbit polyclonal antibodies were used at 1:1,000 dilution, and anti-b-actin polyclonal antibody was used at 1:2,000 dilution.

HIF-1α = test: Immunofluorescence staining of nuclear HIF-1α in OV2008 cells; type: cell-based, human
Experimental: Immunofluorescence staining was performed as described previously (Lee et al., 2006). In brief, OV2008 cells were plated onto a glass slip (Thermo Fisher Scientific) in 24-well plates at 4×10^4 cells per well and grown in complete medium overnight. After starvation overnight, cells were subjected to L-4F treatment in the presence or absence of stimulators. Then, cells were fixed in 4% neutral buffered formaldehyde for 25 min at room temperature, permeabilized with 0.5% Triton X-100 in PBS for 10 min, and blocked with 10% normal goat serum, 1% bovine serum albumin, and 0.3 M glycine prepared in PBS for 1 h. Cells were incubated with mouse anti-HIF-1α (1:200) overnight at 4° C. and incubated with Alexa Fluor 568 goat anti-mouse IgG (Invitrogen) for 1 h. Finally, cells were covered with VectaMount solution containing DAPI (Vector Laboratories, Burlingame, Calif.), and images were captured with a fluorescence microscope (Olympus IX70).

CT26 cells = test: LPA-induced viability of CT26 cells; type: cell-based, mouse; conditions: L-4F 10 mg/mL with LPA 5, 10, 48 hours
Experimental: FIGS. 17A-17B. HDL mimetic, L-4F inhibits LPA induced viability of CT26 cells and reduces LPA levels in cell culture medium. FIG. 17A, CT26 cells were cultured as described in Example 5 and incubated with either L-4F at 10 mg/mL or LPA at a concentration 5, 10, […], or cells were treated with both L-4F and LPA for 48 hours. All experiments were conducted in triplicate and each assay was carried out in quadruplicates. Data are represented as the mean±SD of the percent of control cells. FIG. 17B, LPA levels were measured in the cell culture medium after 48 hours of treatment.
The peptides were dissolved in H2O.

Ac-DWFKAFYDKVAEKFKEAF-NH2 [L-4F, Ac-D-W-F-K-A-F-Y-D-K-V-A-E-K-F-K-E-A-F-NH2]
NIH3T3 cell viability (NIH3T3 cells): not affected
HDL anti-inflammatory properties [1]: did not achieve any improvement
number of vessels in tumors (CD31): reduction in the number of vessels
numbers of tumors of diameter 1-3 mm (APC^min/+ mice): 36.8
numbers of tumors of diameter >3 mm (APC^min/+ mice): 5
total tumor numbers in the intestinal tract, percent of the control (APC^min/+ mice): 60%
ID-8 cell-mediated tumor burden (ID8 cells; C57BL/6J mice, administered subcutaneously or orally, reference (17)): decreased
tumor growth and angiogenesis (ID8 cells; immunocompetent mouse model of ovarian cancer, ID8 (Gao et al., 2011)): inhibited
expression of cyclin D1 and cyclin A (cyclin D1 and cyclin A): significantly lower
nuclear expression of HIF-1α, post-treatment (HIF-1α; OV2008 cells stimulated first with CoCl2 or insulin, 10 μg/ml): decreased nuclear expression
CoCl2- and insulin-induced accumulation of HIF-1α in nuclei (HIF-1α; OV2008 cells, pretreatment): dramatically reversed
LPA-induced viability (CT26 cells): significantly reduced
